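Values below derive from 48-hour exposures of cells grown in 96-well plates, with endpoints linearly interpolated between the two concentrations bracketing the appropriate inhibition level. The concentration for 50% growth inhibition is given as GI50. TGI denotes the concentration required for complete inhibition of growth.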
Key:
Assay in all cases: NCI tumour cell line growth inhibition, 48 h
[1] = tested on: HCC-2998 colon
[2] = tested on: HCT-15 colon
[3] = tested on: K-562 leukemia
[4] = tested on: KM12 colon
[5] = tested on: NCI-H226 lung
[6] = tested on: SK-MEL-5 melanoma
[7] = tested on: SNB-19 CNS
[8] = tested on: SNB-75 CNS
[9] = tested on: HS 578T breast
[10] = tested on: MCF7 breast

Compound	TGI [1]	TGI [2]	TGI [3]	TGI [4]	TGI [5]	TGI [6]	TGI [7]	TGI [8]	GI50 [1]	GI50 [2]	GI50 [9]	TGI [9]	GI50 [3]	GI50 [4]	GI50 [10]	TGI [10]	GI50 [6]	GI50 [7]	GI50 [8]	GI50 [5]
COc1cc(/C=C/C(=O)C(C)(C)C)cc(OC)c1OC	> 100 µM	> 100 µM	> 100 µM	52.7 µM	97.9 µM	> 100 µM	> 100 µM	68.5 µM												
O=C(Cc1nc2ccccc2s1)C(=O)Nc1ccccc1C(F)(F)F	> 100 µM	> 100 µM	> 100 µM	> 100 µM	> 100 µM	> 100 µM	> 100 µM	> 100 µM												
COC(=O)[C@@H](C)C[C@H](Cc1ccccc1)NC(=O)c1cccc([C@@H](C[C@H](C(C)C)N(C)C(=O)[C@@H](NC(=O)[C@H]2CCCCN2C)C(C)C)OC(C)=O)n1	> 7.55 µM	> 16.7 µM	> 16.7 µM	> 16.7 µM		0.0252 µM	> 16.7 µM	> 16.7 µM	< 0.00167 µM	0.00507 µM	0.00342 µM	> 11.8 µM	< 0.00167 µM	< 0.00167 µM	< 0.00167 µM	> 16.7 µM	< 0.00167 µM	< 0.00167 µM	< 0.00167 µM	
Oc1ccc(-c2nc(-c3ccc4oc5ccc(-c6[nH]c(-c7ccc(O)cc7)nc6-c6ccccc6)cc5c4c3)c(-c3ccccc3)[nH]2)cc1	9.69 µM	29.1 µM		7.92 µM	> 100 µM	75.5 µM	83.5 µM	67.6 µM	3.12 µM	3.68 µM	3.55 µM	68.7 µM		2.88 µM	2.99 µM	73.9 µM	4.46 µM	19.1 µM	8.69 µM	13.3 µM
CNCc1ccc(C)c(NC(=O)c2ccc(Nc3nc(-c4ccccc4)c4ccccc4n3)cc2)c1	3.58 µM	3.35 µM	4.54 µM	3.88 µM	4.9 µM	3.12 µM		2.32 µM	1.96 µM	1.69 µM	1.76 µM	4.17 µM	1.91 µM	1.97 µM	1.58 µM	3.25 µM	1.71 µM		0.842 µM	1.98 µM
O=C1OC2C(O)COC2(OCc2c[nH]c3ccccc23)C1O (stereo not drawn) (tested in a mixture with another compound)		> 100 µM	> 100 µM	> 100 µM	> 100 µM	> 100 µM	> 100 µM	> 100 µM												
Cc1nc2c(=O)n(C)c(=O)nc-2n(-c2ccc(Cl)cc2)c1C	> 100 µM	> 100 µM	> 100 µM	> 100 µM	> 100 µM	> 100 µM	> 100 µM	> 100 µM												
O=[N+]([O-])c1ccc(-c2ccc(C3=Nn4c(nnc4-c4ccc(Cl)cc4)SC3)o2)cc1	> 100 µM	> 100 µM	> 100 µM	> 100 µM	> 100 µM	> 100 µM	> 76.8 µM	> 65.3 µM												
O=C1c2ccccc2CC1C1(O)C(=O)Nc2c(Cl)cc(Cl)cc21 (stereo not drawn)	> 100 µM	> 100 µM	> 100 µM	> 100 µM	> 100 µM	> 100 µM	> 100 µM	> 100 µM												
S=C(N/N=C/c1ccccc1)NC1CC(c2ccccc2)Oc2ccccc21 (stereo not drawn)	> 100 µM		> 100 µM	> 100 µM	> 100 µM	65.8 µM	> 100 µM	31.3 µM												
